Measurements from the NIST ThermoML archive (doi:10.1016/j.jct.2017.07.024).

Legend:
[1] = for surface tension liquid-gas: Maximal bubble pressure; for mass density: 100 kPa, Liquid, Vibrating tube method
[2] = refractive index (Na D-line) (dimensionless); conditions: 100 kPa, Liquid, Standard Abbe refractometry

CCCCCn1cc[n+](C)c1.C[C@@H](O)[C@H](N)C(=O)[O-] [1-pentyl-3-methylimidazolium DL-threoninate]
Conditions | mass density, [1] [kg/m3] | refractive index, [2] | surface tension liquid-gas, [1] [mN/m]
288.15 K | 1107.7 | 1.508 | 38.2
293.15 K | 1104.39 | 1.5065 | 37.8
298.15 K | 1101.08 | 1.5048 | 37.6
303.15 K | 1097.75 | 1.5032 | 37.2
308.15 K | 1094.43 | 1.5018 | 36.9
313.15 K | 1091.16 | 1.5001 | 36.6
318.15 K | 1087.7 | 1.4987 | 36.2
323.15 K | 1084.55 | 1.497 | 35.9
328.15 K | 1081.25 | 1.4955 | 35.6

CCCCCCn1cc[n+](C)c1.C[C@@H](O)[C@H](N)C(=O)[O-] [1-hexyl-3-methylimidazolium DL-threoninate]
Conditions | mass density, [1] [kg/m3] | refractive index, [2] | surface tension liquid-gas, [1] [mN/m]
288.15 K | 1089.98 | 1.5049 | 37
293.15 K | 1086.67 | 1.5033 | 36.6
298.15 K | 1083.36 | 1.5019 | 36.3
303.15 K | 1080.02 | 1.5001 | 36
308.15 K | 1076.7 | 1.4988 | 35.7
313.15 K | 1073.42 | 1.4971 | 35.4
318.15 K | 1069.96 | 1.4957 | 35
323.15 K | 1066.82 | 1.494 | 34.7
328.15 K | 1063.52 | 1.4925 | 34.4

CCCn1cc[n+](C)c1.C[C@@H](O)[C@H](N)C(=O)[O-] [1-propyl-3-methylimidazolium DL-threoninate]
Conditions | mass density, [1] [kg/m3] | refractive index, [2] | surface tension liquid-gas, [1] [mN/m]
288.15 K | 1151.33 | 1.5147 | 41.4
293.15 K | 1148.8 | 1.5131 | 41.1
298.15 K | 1144.52 | 1.5116 | 40.7
303.15 K | 1141.13 | 1.5101 | 40.4
308.15 K | 1137.76 | 1.5086 | 40.1
313.15 K | 1134.38 | 1.5071 | 39.8
318.15 K | 1130.9 | 1.5055 | 39.4
323.15 K | 1127.5 | 1.5039 | 39.1
328.15 K | 1124.07 | 1.5026 | 38.7
